The target in assay [1] is T1, monoamine oxidase (type B enzyme, β-phenylethylamine substrate) (Rattus norvegicus, UniProt P19643).
T1 sequence (P19643 1-520): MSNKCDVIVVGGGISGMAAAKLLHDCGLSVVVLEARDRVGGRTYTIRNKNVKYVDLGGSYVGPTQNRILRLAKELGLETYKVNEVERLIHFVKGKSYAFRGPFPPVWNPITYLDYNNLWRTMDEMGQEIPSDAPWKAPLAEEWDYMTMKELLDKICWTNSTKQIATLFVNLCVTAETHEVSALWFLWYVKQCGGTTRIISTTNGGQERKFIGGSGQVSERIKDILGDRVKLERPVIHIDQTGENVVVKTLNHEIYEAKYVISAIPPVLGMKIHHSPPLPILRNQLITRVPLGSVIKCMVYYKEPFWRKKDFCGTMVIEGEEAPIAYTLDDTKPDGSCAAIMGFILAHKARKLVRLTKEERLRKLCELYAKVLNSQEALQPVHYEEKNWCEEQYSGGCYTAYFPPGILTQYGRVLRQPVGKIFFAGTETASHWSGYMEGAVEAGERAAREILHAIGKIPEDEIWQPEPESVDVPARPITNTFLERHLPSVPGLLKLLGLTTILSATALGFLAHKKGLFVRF
As to the kind of experiment: in-vitro monoamine oxidase inhibition, [14C]phenylethylamine hydrochloride as substrate. The class given is biochemical. As to conditions: monoamine oxidase extract of Wistar rat tissue, pH 7.4, 37° C., 20 minutes.

For assay [2], the target named is T2, monoamine oxidase (type A enzyme, tryptamine substrate) (Rattus norvegicus, UniProt P21396).
T2 sequence (P21396 1-526): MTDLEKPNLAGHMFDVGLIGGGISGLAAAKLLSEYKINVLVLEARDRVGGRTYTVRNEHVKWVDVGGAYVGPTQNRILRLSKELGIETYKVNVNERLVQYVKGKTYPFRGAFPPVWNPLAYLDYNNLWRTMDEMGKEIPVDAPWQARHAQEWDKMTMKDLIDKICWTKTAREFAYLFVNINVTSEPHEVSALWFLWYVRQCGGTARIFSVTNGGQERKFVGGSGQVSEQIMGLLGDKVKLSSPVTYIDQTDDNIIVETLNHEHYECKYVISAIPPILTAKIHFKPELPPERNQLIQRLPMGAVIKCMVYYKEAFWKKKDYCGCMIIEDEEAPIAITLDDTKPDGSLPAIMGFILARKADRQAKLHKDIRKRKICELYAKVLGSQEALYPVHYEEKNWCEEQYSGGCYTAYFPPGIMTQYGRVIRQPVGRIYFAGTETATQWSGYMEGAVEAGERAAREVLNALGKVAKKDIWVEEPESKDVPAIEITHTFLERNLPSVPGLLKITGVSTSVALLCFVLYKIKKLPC
As to the kind of experiment: in-vitro monoamine oxidase inhibition, [14C]tryptamine as substrate. The class given is biochemical. As to conditions: Table I; monoamine oxidase extract of Wistar rat tissue, pH 7.4, 37° C., 20 minutes; read-out: I.C.50-value using as substrate [14C]tryptamine.

The mark [3] stands for this setting: Table I, read-out: I.C.50-value using as substrate [14C]phenylethylamine . HCl.

Molecules are shown by their SMILES. Where a name gives a salt, the structure may show the parent alone. Read-outs that look alike come from different tables or passages of the source.

With `C#CCNc1ccc2c(c1)SC1=NCCN12`, the IC50 is 55000 nM in assay [1] (setting [3]) and 800 nM in assay [2].

Take `CC(CO)Nc1ccc2c(c1)N1CCN=C1S2` (stereo not shown): in assay [2], the IC50 was 130 nM.

In the case of `CCCCCCN(C=C(C(=O)OCC)C(=O)OCC)c1ccc2c(c1)SC1=[N+](CCCCCC)CCN12`, the IC50 in assay [1] (Table 2, read-out: I.C.50-value using as substrate [14C]phenylethylamine hydrochloride) amounted to 1800 nM.

As to `CCCc1ccc2c(c1)SC1=NC(c3ccccc3)CN12` (stereo not shown) [2-C6 H5,7-C3 H7], the values for the IC50 in assay [1] (setting [3]) and in assay [2] were 6000 nM and 2500 nM, respectively.

Regarding `c1ccc2c3c(ccc2c1)SC1=NCCN13` [5,6-(CHCHCHCH)], the values for the IC50 in assay [1] (setting [3]) and in assay [2] were 4000 nM and 6 nM, respectively.

In the case of `c1c2c(cc3c1SC1=NCCN13)CCC2` [6,7-(CH2)3], the values for the IC50 in assay [1] (setting [3]) and in assay [2] were 12000 nM and 55 nM, respectively.

On to `CCc1ccc2c(c1)N1CCN=C1S2` [6-C2 H5], for which the IC50 is 10000 nM in assay [1] (setting [3]) and 140 nM in assay [2].

Take `O=C(c1ccccc1)c1ccc2c(c1)N1CCN=C1S2` [6-COC6 H5, (2,3-dihydroimidazo[2,1-b]benzothiazol-6-yl)phenylmethanone monohydrochloride]: the IC50 in assay [1] (setting [3]) amounted to 3000 nM; in assay [2], 220 nM.

As for `CCNc1ccc2c(c1)N1CCN=C1S2` [6-NHC2 H5, N-ethyl-2,3-dihydroimidazo[2,1-b]benzothiazol-6-amine], the IC50 in assay [1] (setting [3]) is 40000 nM; in assay [2], 18 nM.

Take `Clc1ccc(CNc2ccc3c(c2)N2CCN=C2S3)cc1` [6-NHCH2(4-ClC6 H4)]: the IC50 in assay [1] (setting [3]) was found to be 70 nM; in assay [2], 26 nM.

As to `CCC(CC)Nc1ccc2c(c1)N1CCN=C1S2` [6-NHCH(C2 H5)2], the IC50 came to 1800 nM in assay [1] (setting [3]) and 6 nM in assay [2].

Consider `CC(C)Nc1ccc2c(c1)N1CCN=C1S2` [6-NHi . C3 H7, 2,3-dihydro-N-(1-methylethyl)imidazo[2,1-b]benzothiazol-6-amine], for which the IC50 in assay [1] (setting [3]) was 34000 nM; in assay [2] it was 18 nM.

For `CCCCCCc1ccc2c(c1)SC1=NCCN12` [7-C6 H13], the IC50 is 40 nM in assay [1] (setting [3]) and 20 nM in assay [2].

As for `CCCN(C=C(C(=O)OCC)C(=O)OCC)c1ccc2c(c1)SC1=NCCN12` [7-N(C3 H7)CHC(COOEt)2], the IC50 in assay [1] (setting [3]) worked out at 2200 nM; in assay [2], 220 nM.

For `CCNc1ccc2c(c1)SC1=NCCN12` [7-NHC2 H5], the IC50 in assay [1] (setting [3]) was 45000 nM; in assay [2] it was 100 nM.

In the case of `COc1cc(CNc2ccc3c(c2)SC2=NCCN23)cc(OC)c1OC` [7-NHCH2 [3,4,5-(OCH3)3C6 H2]], the IC50 in assay [1] (setting [3]) was 70 nM; in assay [2] it was 20000 nM.

Consider `CCOC(=O)C(=CNc1ccc2c(c1)SC1=NCCN12)C(=O)OCC` [7-NHCHC(COOEt)2, diethyl 2-[(2,3-dihydroimidazo[2,1-b]benzothiazol-7-yl-amino)methylene]propanedioate], for which the IC50 in assay [1] (setting [3]) was determined as 30 nM; in assay [2], 3400 nM.

For `c1ccc(Oc2ccc3c(c2)SC2=NCCN23)cc1` [7-OC6 H5], the IC50 in assay [1] (setting [3]) worked out at 95 nM; in assay [2], 450 nM.

Consider `c1cc2c(cc1C1CCCCC1)SC1=NCCN12` [7-c . C6 H 11], for which the IC50 in assay [1] (setting [3]) amounted to 65 nM; in assay [2], 12 nM.

Consider `CCNc1cccc2c1SC1=NCCN12` [8-NHC2 H5], for which the IC50 was found to be 40000 nM in assay [1] (setting [3]) and 2 nM in assay [2].

Take `Cc1cccc2c1N1CCN=C1S2` [Example 5-CH3]: the results for the IC50 in assay [1] (setting [3]) and in assay [2] were 4000 nM and 220 nM, respectively.

On to `Clc1cccc2c1N1CCN=C1S2` [Example 5-Cl], for which the IC50 in assay [1] (setting [3]) was 600 nM; in assay [2] it was 120 nM.

Regarding `CC(=O)Nc1ccc2c(c1)N1CCN=C1S2` [Example 6-NHCOCH3, N-(2,3-dihydroimidazo[2,1-b]benzothiazol-6-yl)acetamide], the IC50 in assay [1] (setting [3]) turned out to be 85000 nM; in assay [2] it was 1800 nM.

For the molecule `NC(=O)Nc1ccc2c(c1)N1CCN=C1S2` [Example 6-NHCONH2, N-(2,3-dihydroimidazo[2,1-b]benzothiazol-6-yl)urea], the IC50 amounted to 12000 nM in assay [1] (setting [3]) and 1600 nM in assay [2].

As for `COc1ccc2c(c1)SC1=NCCN12` [Example 7-OCH3], the results for the IC50 in assay [1] (setting [3]) and in assay [2] were 14000 nM and 280 nM, respectively.

Take `Oc1ccc2c(c1)SC1=NCCN12` [Example 7-OH, 2,3-dihydroimidazo[2,1-b]benzothiazol-7-ol monohydrobromide]: the IC50 in assay [2] stood at 2000 nM.

These data come from US4262004A, “2,3-Dihydro-imidazo[2,1-b]benzothiazole compositions to treat depressions” (Janssen Pharmaceutica, N.V., priority 1979, dated 1981).
